The text below walks through data of patent US11331314B2, “Amine substituted triazole derivatives and uses thereof” (Bayer Pharma Aktiengesellschaft, priority 2017, dated 2022).

Each structure is given as a SMILES string.

The target in assay [1] is T1, human V2 receptor (Homo sapiens, UniProt P30518).
T1 construct: expressed in transfected cells; host or cells: CHO K1 (ATCC) expressing firefly luciferase under a CRE-responsive promoter
Nature of the assay: Cellular in vitro assay for determining vasopressin receptor activity, V2 receptor cell line (CRE-luciferase). As to conditions: CHO cell line transfected with the human V2 receptor; agonist [Arg8]-vasopressin at EC50 concentration; read-out: IC50 hV2. The format is cell-based. As for the experimental part: (§1) B-1. Cellular In Vitro Assay for Determining Vasopressin Receptor Activity
(§2) The identification of agonists and antagonists of the V1a and V2 vasopressin receptors from humans, rats and dogs as well as the quantification of the activity of the compounds of the invention is carried out using recombinant cell lines. These cell lines originally derive from a hamster's ovary epithelial cell (Chinese Hamster Ovary, CHO K1, ATCC: American Type Culture Collection, Manassas, Va. 20108, USA). The test cell lines constitutively express the human, rat or dog V1a or V2 receptors. In case of the Gαq-coupled V1a receptors, cells are also stably transfected with a modified form of the calcium-sensitive photoproteins aequorin (human and rat V1a) or obelin (dog V1a), which, after reconstitution with the cofactor coelenterazine, emit light when there are increases in free calcium concentrations [Rizzuto R, Simpson A W, Brini M, Pozzan T, Nature 358, 325-327 (1992); Illarionov B A, Bondar V S, Illarionova V A, Vysotski E S, Gene 153 (2), 273-274 (1995)]. The resulting vasopressin receptor cells react to stimulation of the recombinantly expressed V1a receptors by intracellular release of calcium ions, which can be quantified by the resulting photoprotein luminescence. The Gs-coupled V2 receptors are stably transfected into cell lines expressing the gene for firefly luciferase under control of a CRE-responsible promoter. Activation of V2 receptors induces the activation of the CRE-responsive promoter via cAMP increase, thereby inducing the expression of firefly luciferase. The light emitted by photoproteins of V1a cell lines as well as the light emitted by firefly luciferase of V2 cell lines corresponds to the activation or inhibition of the respective vasopressin receptor. The bioluminescence of the cell lines is detected using a suitable luminometer [Milligan G, Marshall F, Rees S, Trends in Pharmacological Sciences 17, 235-237 (1996)].
Vasopressin V2 Receptor Cell Lines:
On the day before the assay, the cells are plated out in culture medium (DMEM/F12, 2% FCS, 2 mM glutamine, 10 mM HEPES) in 384-well microtiter plates and kept in a cell incubator (96% humidity, 5% v/v CO2, 37° C.). On the day of the assay, test compounds in various concentrations and the agonist [Arg^8]-vasopressin at EC50 concentration are added together to the wells, and plates are incubated for 3 hours in a cell incubator. Upon addition of the cell lysis reagent Triton™ and the substrate luciferin, luminescence of firefly luciferase is measured in a luminometer.
(§3) Table 1A below lists individual IC50 values for the compounds of the invention (including racemic mixtures as well as separated enantiomers) that were obtained from cell lines transfected with the human V1a or V2 receptor: […]

For assay [2], the target named is human V1a receptor (Homo sapiens, UniProt P37288). Nature of the assay: Cellular in vitro assay for determining vasopressin receptor activity, V1a receptor cell line (photoprotein luminescence). It is filed as cell-based. As to conditions: for IC50: CHO cell line transfected with the human V1a receptor, agonist [Arg8]-vasopressin at EC50 concentration, read-out: IC50 hV1a; for ratio IC50 hV2/hV1a: selectivity ratio of the cellular IC50 values. As for the experimental part: as §1, §2
Sequence of human V1a receptor (P37288 whole entry): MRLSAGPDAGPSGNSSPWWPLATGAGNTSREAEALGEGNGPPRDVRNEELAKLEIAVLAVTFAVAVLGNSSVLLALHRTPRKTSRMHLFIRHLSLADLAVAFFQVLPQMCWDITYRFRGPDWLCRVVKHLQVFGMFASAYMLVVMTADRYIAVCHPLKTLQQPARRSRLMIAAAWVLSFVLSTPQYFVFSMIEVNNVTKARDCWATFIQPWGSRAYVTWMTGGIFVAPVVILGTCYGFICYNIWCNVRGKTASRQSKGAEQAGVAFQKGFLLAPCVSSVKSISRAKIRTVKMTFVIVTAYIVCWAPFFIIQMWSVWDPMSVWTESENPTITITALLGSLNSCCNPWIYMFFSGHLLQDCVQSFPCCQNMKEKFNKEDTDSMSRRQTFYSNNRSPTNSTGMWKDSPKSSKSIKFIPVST
Vasopressin V1a Receptor Cell Lines:
On the day before the assay, the cells are plated out in culture medium (DMEM/F12, 2% FCS, 2 mM glutamine, 10 mM HEPES, 5 μg/ml coelenterazine) in 384-well microtiter plates and kept in a cell incubator (96% humidity, 5% v/v CO2, 37° C.). On the day of the assay, test compounds in various concentrations are placed for 10 minutes in the wells of the microtiter plate before the agonist [Arg^8]-vasopressin at EC50 concentration is added. The resulting light signal is measured immediately in a luminometer.
as §3

T1 sequence (P30518 whole entry): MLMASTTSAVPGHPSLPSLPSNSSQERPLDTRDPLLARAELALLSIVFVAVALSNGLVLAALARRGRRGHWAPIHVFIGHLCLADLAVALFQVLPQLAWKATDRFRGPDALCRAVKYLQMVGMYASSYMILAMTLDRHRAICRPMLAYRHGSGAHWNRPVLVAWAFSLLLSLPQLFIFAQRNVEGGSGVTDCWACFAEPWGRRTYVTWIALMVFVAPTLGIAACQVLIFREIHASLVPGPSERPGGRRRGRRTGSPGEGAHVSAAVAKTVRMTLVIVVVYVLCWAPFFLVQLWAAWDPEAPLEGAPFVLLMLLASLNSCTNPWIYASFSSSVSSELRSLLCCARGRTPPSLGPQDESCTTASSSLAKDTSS

Turning to `NC(CNc1nc(Cn2nc(-c3ccc(Cl)cc3)n(C[C@H](O)C(F)(F)F)c2=O)nn1-c1ccccc1Cl)C(F)(F)F` (mixture of isomers) [Example 6, 2-{[5-{[2-Amino-3,3,3-trifluoropropyl]amino}-1-(2-chlorophenyl)-1H-1,2,4-triazol-3-yl]methyl}-5-(4-chlorophenyl)-4-[(2S)-3,3,3-trifluoro-2-hydroxypropyl]-2,4-dihydro-3H-1,2,4-triazol-3-one], the IC50 (as a rule, the midpoint of a concentration-inhibition curve) in assay [1] amounted to 3.45 nM. Also, in assay [2], the IC50 was 0.39 nM and the “ratio IC50 hV2/hV1a” value is on record as 8.9.
Taken in the same sequence, the figures for `NCC(O)CNc1nc(Cn2nc(-c3ccc(Cl)cc3)n(C[C@H](O)C(F)(F)F)c2=O)nn1-c1ccccc1Cl` (mixture of isomers) [Example 11, 2-{[5-{[3-Amino-2-hydroxypropyl]amino}-1-(2-chlorophenyl)-1H-1,2,4-triazol-3-yl]methyl}-5-(4-chlorophenyl)-4-[(2S)-3,3,3-trifluoro-2-hydroxypropyl]-2,4-dihydro-3H-1,2,4-triazol-3-one] were 4.65 nM, 0.93 nM and 5.0.
Regarding `O=C1NCC(CNc2nc(Cn3nc(-c4ccc(Cl)cc4)n(C[C@H](O)C(F)(F)F)c3=O)nn2-c2ccccc2Cl)O1` (mixture of isomers) [Example 12, 5-(4-Chlorophenyl)-2-{[1-(2-chlorophenyl)-5-({[2-oxo-1,3-oxazolidin-5-yl]methyl}amino)-1H-1,2,4-triazol-3-yl]methyl}-4-[(2S)-3,3,3-trifluoro-2-hydroxypropyl]-2,4-dihydro-3H-1,2,4-triazol-3-one], the IC50 in assay [1] amounted to 2.45 nM. Also, in assay [2], the IC50 came to 1.2 nM and the “ratio IC50 hV2/hV1a” value is listed as 2.0.
The like results for `O=c1n(Cc2nc(N3CCC(O)(C(F)(F)F)C3)n(-c3ccccc3Cl)n2)nc(-c2ccc(Cl)cc2)n1C[C@H](O)C(F)(F)F` (mixture of isomers) [Example 13, 5-(4-Chlorophenyl)-2-({1-(2-chlorophenyl)-5-[3-hydroxy-3-(trifluoromethyl)pyrrolidin-1-yl]-1H-1,2,4-triazol-3-yl}methyl)-4-[(2S)-3,3,3-trifluoro-2-hydroxypropyl]-2,4-dihydro-3H-1,2,4-triazol-3-one] were, in that order, 2.25 nM, 0.35 nM and 6.5.
The like results for `O=C1NCCC1Nc1nc(Cn2nc(-c3ccc(Cl)cc3)n(C[C@H](O)C(F)(F)F)c2=O)nn1-c1ccccc1Cl` (mixture of isomers) [Example 16, 5-(4-Chlorophenyl)-2-{[1-(2-chlorophenyl)-5-{[2-oxopyrrolidin-3-yl]amino}-1H-1,2,4-triazol-3-yl]methyl}-4-[(2S)-3,3,3-trifluoro-2-hydroxypropyl]-2,4-dihydro-3H-1,2,4-triazol-3-one] were, in that order, 0.82 nM, 0.33 nM and 2.5.
The like results for `CC(C)(C)OC(=O)N1CCCC(O)(CNc2nc(Cn3nc(-c4ccc(Cl)cc4)n(C[C@H](O)C(F)(F)F)c3=O)nn2-c2ccccc2Cl)CC1` (mixture of isomers) [Example 19, tert-Butyl 4-({[1-(2-chlorophenyl)-3-({3-(4-chlorophenyl)-5-oxo-4-[(2S)-3,3,3-trifluoro-2-hydroxypropyl]-4,5-dihydro-1H-1,2,4-triazol-1-yl}methyl)-1H-1,2,4-triazol-5-yl]amino}methyl)-4-hydroxyazepane-1-carboxylate] were, in that order, 38 nM, 2.55 nM and 14.9.
In the case of `O=c1n(Cc2nc(NCC3(O)CCCNCC3)n(-c3ccccc3Cl)n2)nc(-c2ccc(Cl)cc2)n1C[C@H](O)C(F)(F)F` (mixture of isomers) [Example 20], the IC50 in assay [1] worked out at 12 nM. Also, in assay [2], the IC50 came to 0.42 nM and the “ratio IC50 hV2/hV1a” value amounted to 28.6.
Taken in the same sequence, the figures for `CC(N)(CNc1nc(Cn2nc(-c3ccc(Cl)cc3)n(C[C@H](O)C(F)(F)F)c2=O)nn1-c1ccccc1Cl)C(F)(F)F` (mixture of isomers) [Example 27, 2-{[5-{[2-Amino-3,3,3-trifluoro-2-methylpropyl]amino}-1-(2-chlorophenyl)-1H-1,2,4-triazol-3-yl]methyl}-5-(4-chlorophenyl)-4-[(2S)-3,3,3-trifluoro-2-hydroxypropyl]-2,4-dihydro-3H-1,2,4-triazol-3-one] were 1.28 nM, 0.35 nM and 3.7.
For the compound `CC1(O)CCN(c2nc(Cn3nc(-c4ccc(Cl)cc4)n(C[C@H](O)C(F)(F)F)c3=O)nn2-c2ccccc2Cl)C1` (mixture of isomers) [Example 29, 5-(4-Chlorophenyl)-2-({1-(2-chlorophenyl)-5-[3-hydroxy-3-methylpyrrolidin-1-yl]-1H-1,2,4-triazol-3-yl}methyl)-4-[(2S)-3,3,3-trifluoro-2-hydroxypropyl]-2,4-dihydro-3H-1,2,4-triazol-3-one], the IC50 in assay [1] is 4.9 nM. In addition, in assay [2], the IC50 was 1.05 nM and the “ratio IC50 hV2/hV1a” value stood at 4.7.
Taken in the same sequence, the figures for `NC(=O)C1CN(c2nc(Cn3nc(-c4ccc(Cl)cc4)n(C[C@H](O)C(F)(F)F)c3=O)nn2-c2ccccc2Cl)CCN1` (mixture of isomers) [Example 33, 4-[1-(2-Chlorophenyl)-3-({3-(4-chlorophenyl)-5-oxo-4-[(2S)-3,3,3-trifluoro-2-hydroxypropyl]-4,5-dihydro-1H-1,2,4-triazol-1-yl}methyl)-1H-1,2,4-triazol-5-yl]piperazine-2-carboxamide] were 9.25 nM, 0.37 nM and 25.2.
`O=CN1CCC(Nc2nc(Cn3nc(-c4ccc(Cl)cc4)n(C[C@H](O)C(F)(F)F)c3=O)nn2-c2ccccc2Cl)C1` (mixture of isomers) [Example 41, 3-{[1-(2-Chlorophenyl)-3-({3-(4-chlorophenyl)-5-oxo-4-[(2S)-3,3,3-trifluoro-2-hydroxypropyl]-4,5-dihydro-1H-1,2,4-triazol-1-yl}methyl)-1H-1,2,4-triazol-5-yl]amino}pyrrolidine-1-carbaldehyde]: the IC50 in assay [1] was 7.4 nM. Moreover, in assay [2], the IC50 turned out to be 0.93 nM and the “ratio IC50 hV2/hV1a” value is 8.0.
Consider `COC1CCN(c2nc(Cn3nc(-c4ccc(Cl)cc4)n(C[C@H](O)C(F)(F)F)c3=O)nn2-c2ccccc2Cl)C1` (mixture of isomers) [Example 42, 5-(4-Chlorophenyl)-2-({1-(2-chlorophenyl)-5-[3-methoxypyrrolidin-1-yl]-1H-1,2,4-triazol-3-yl}methyl)-4-[(2S)-3,3,3-trifluoro-2-hydroxypropyl]-2,4-dihydro-3H-1,2,4-triazol-3-one], for which the IC50 in assay [1] amounted to 1.9 nM; in assay [2], 0.48 nM. The “ratio IC50 hV2/hV1a” value in assay [2] was 4.0.
Taken in the same sequence, the figures for `O=c1n(Cc2nc(N3CCC(O)C3)n(-c3ccccc3Cl)n2)nc(-c2ccc(Cl)cc2)n1C[C@H](O)C(F)(F)F` (mixture of isomers) [Example 43, 5-(4-Chlorophenyl)-2-({1-(2-chlorophenyl)-5-[3-hydroxypyrrolidin-1-yl]-1H-1,2,4-triazol-3-yl}methyl)-4-[(2S)-3,3,3-trifluoro-2-hydroxypropyl]-2,4-dihydro-3H-1,2,4-triazol-3-one] were 4.4 nM, 0.42 nM and 10.5.
The like results for `O=c1n(Cc2nc(NCC(O)C(F)(F)F)n(-c3ccccc3Cl)n2)nc(-c2ccc(Cl)cc2)n1C[C@H](O)C(F)(F)F` (mixture of isomers) [Example 53, 5-(4-Chlorophenyl)-2-{[1-(2-chlorophenyl)-5-{[3,3,3-trifluoro-2-hydroxypropyl]amino}-1H-1,2,4-triazol-3-yl]methyl}-4-[(2S)-3,3,3-trifluoro-2-hydroxypropyl]-2,4-dihydro-3H-1,2,4-triazol-3-one] were, in that order, 1.85 nM, 0.52 nM and 3.6.
